System: α-glucosidase
Assay: in-vitro assay for anti-diabetic activity (α-glucosidase inhibition)
Assay type: biochemical
Conditions: amount printed without volume or percent inhibition
Source text: The structure of compound 1 was established by the study of ^1H-^1H—COSY, HMQC, HMBC and NOESY spectral data (Table 1) as Formula 1.

SMILES: N=C1NCC(CCNC(=O)c2cc3c(cn2)[nH]c2ccccc23)N1 (stereo not shown) [Tiruchenduramine, tiruchenduramine]
- amount at which it inhibits α-glucosidase: 788 µg

Source: patent publication US20050222168A1, “Beta-carboline derived guanidine alkaloids, tiruchenduramine” (Council of Scientific and Industrial Research, priority 2004, published 2005)
